Like-named read-outs stand apart in the source and are kept apart here.
What was measured:
HSA = biological target: T1, HSA (Homo sapiens, UniProt P02768); details: used in fitting; read-out: KD for dansylglycine (HSA); cited from earlier work
T1 construct: purchased Sigma-Aldrich

mouse pancreas = assay: In vivo MR imaging of glucose stimulated insulin secretion (GSIS) in the mouse pancreas; set-up: species or system C57B1/6 mice; details: over the first 10-15 min after injection; 0.07 mmol/kg i.v., glucose IP
Description: Both phases of insulin secretion are considered essential, but the early RRP phase that is thought to be the first signal reduced during the development of type 2 diabetes (Komatsu et al., 2013; Hosker et al., 1989). In principle, both phases of insulin secretion should be detectable by MRI if enough sensor is present in the extracellular space during the time-course of these events. Biphasic GSIS was not detected by MRI in previous experiments using the first generation Zn^2+ sensors with a high affinity for Zn^2+ but we hypothesized that GSIS may be more easily detected using these second-generation agents having a much lower affinity for Zn^2+. To test this, dynamic MRI scans were collected after administering either GdL1, GdL2, GdL3 or GdL4 to C57B1/6 mice via a tail vein (0.07 mmol/kg). Nearly simultaneously with agent injection, a bolus (50 μL) of 20% w/v glucose was administered IP to stimulate secretion of insulin.
All animal experiments were performed in accordance with guidelines set by the UT Southwestern Institutional Animal Care and Use Committee (IACUC). Male C57b1/6 mice were fasted for at least 12 hours before imaging experiments. The animals were anaesthetized with isofluorane and catheterized via the tail vein. Once the animals were secured inside a 38 mm volume coil, the pancreas was positioned in the center of the 9.4 T Varian MRI scanner. Two 3D T1-weighted gradient echo pre-injection scans were obtained (TE/TR=1.69/3.34 ms, NEX8, Matrix=128×128 ×128). 70 μl of 20 mM contrast agent were injected i.v. and 50 μl of 20% w/v D-glucose were injected intraperitoneally and consecutive 3D T1-weighted scans were obtained sequentially to monitor signal enhancement in the pancreas. Identification of the pancreas was accomplished by locating the tissues surrounded by the spleen, stomach, and kidneys. A total of 3 animals were scanned per group and images were quantified and analyzed using ImageJ (National Institutes of Health, Bethesda, Md.). The signal intensities from ROIs of the tip of the pancreas were measured before, at every ˜3-4 minutes post D-glucose injection over 30 minutes total. The values were normalized to the signal intensity obtained from a water phantom placed on the mouse abdomen. Contrast enhancement was calculated using the formula
[formula] Statistical analysis was performed by comparing the mean values using a two-tailed t-test. Statistical difference was evaluated using t-scores and p-values at a 95 and 99% confidence level.

[1] = comparison Dy complexes; cited from earlier work
[2] = cited from earlier work
[3] = Kinetic inertness (transmetalation by Zn(II) in phosphate buffer); format: physicochemical; details: four equivalents of Zn^2+ in phosphate buffer (pH=7), 310 K
Description: Shortly after the first confirmed clinical cases of nephrogenic systemic fibrosis (NSF), increased efforts have been made to design agents with high thermodynamic stability and kinetic inertness (Kallen et al., 2008; Reilly, 2008; Rofsky et al., 2008; Wiginton et al., 2008; Abujuden et al., 2009). The sensors shown here are very stable macrocyclic DO3A-monoamide derivatives with reported log KML>20. However, given that the agents reported here also have a high affinity for Zn^2+ ions, and Zn^2+ has been implicated as the major competing ion for transmetalation of Gd^3+ agents derived from linear polyamine ligands, the kinetic rate of Gd^3+ release is arguably the most critical factor in determining in vivo toxicity (Laurent et al., 2010). Using a previously published method (Laurent et al., 2010) consisting of incubating each agent with four equivalents of Zn^2+ in phosphate buffer (pH=7), we compared the kinetic stability of the agents reported here with the FDA-approved agent Magnevist® (GdDTPA, cf. FIG. 7).
Kinetic inertness was determined according to published procedures with minor modifications (Laurent et al., 2010; Silverio et al., 2009). Stock solutions of phosphate buffer (67 mM, pH=7.4), Gd(III) chelates (10 mM) and ZnCl2 (231 mM) were prepared first. Calculated volumes of stock solutions or water were pipetted into small glass vials to obtain a test solution of 300 μL with 30 mM phosphate, 1.5 mM Gd(III) chelate, and 6.0 mM Zn(II). Samples were measured 15 minutes after the sample temperature stabilized at 310 K. During the entire experiment, the samples inside the NMR tubes were kept in an incubator at 310 K. The T1 of the solutions was determined at 310 K and 0.47 T (20 MHz) at various time points within 7 days. As a reference, GdDTPA was analyzed under the same conditions. The R1^P relaxation rate is obtained by subtracting the diamagnetic contribution of the water relaxation (0.28 s-1) from the observed relaxation rate R1=(1/T1).

[4] = Measured at 25° C., Powell et al., 1994, 1996

T1 sequence (P02768 25-609): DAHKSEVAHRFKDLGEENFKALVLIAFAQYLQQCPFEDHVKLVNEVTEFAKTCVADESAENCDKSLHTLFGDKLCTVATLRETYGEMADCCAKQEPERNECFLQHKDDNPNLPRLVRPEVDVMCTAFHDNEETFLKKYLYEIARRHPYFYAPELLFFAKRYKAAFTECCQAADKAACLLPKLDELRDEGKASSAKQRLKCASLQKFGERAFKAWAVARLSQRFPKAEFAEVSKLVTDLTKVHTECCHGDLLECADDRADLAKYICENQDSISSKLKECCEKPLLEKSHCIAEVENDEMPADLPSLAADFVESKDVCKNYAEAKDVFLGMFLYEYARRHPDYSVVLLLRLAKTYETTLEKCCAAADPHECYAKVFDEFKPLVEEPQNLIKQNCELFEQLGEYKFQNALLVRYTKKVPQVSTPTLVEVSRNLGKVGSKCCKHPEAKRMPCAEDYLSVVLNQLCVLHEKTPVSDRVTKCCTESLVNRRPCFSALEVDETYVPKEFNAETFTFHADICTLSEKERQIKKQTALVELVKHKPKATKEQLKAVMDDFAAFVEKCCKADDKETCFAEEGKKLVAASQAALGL

Compound | 1/T2m^298 [1] | A1 [1] | A2 [1] | ER [1] | kex^298 [1] | ΔH^‡ [1] | further results
CN(C)c1cccc2c(S(=O)(=O)NCC(=O)O)cccc12 [dansylglycine] | – | – | – | – | – | – | Kd (HSA): 2500 nM
CC(O)CN1CCN(CC(=O)[O-])CCN(CC(=O)[O-])CCN(CC(=O)[O-])CC1.[Gd+3] (centres unmarked) [GdHPDO3A, reference compound] | – | – | – | – | – | – | T1-weighted MR image enhancement in pancreatic tissues and kidneys (mouse pancreas): significant image enhancements
O=C([O-])CN1CCN(CC(=O)[O-])CCN(CC(=O)[O-])CCN(CC(=O)[O-])CC1.[Dy+3] [DyDOTA] | 20 10^4 s^−1 | −50 10^6rad s^−1K T^−1 | 0 10^9rad s^−1K^2 T^−1 | -21.5 kcal/mol | 70 10^6 s^−1 | 21.5 kcal/mol | –
O=C([O-])CN1CCN(CC(=O)[O-])CCN(CC(=O)[O-])CCN(CC(=O)[O-])CC1.[Gd+3] [GdDOTA] | – | – | – | – | – | – | hyperfine coupling constant (AO/ℏ) [2, 4]: −3.7 ×10^6 rad/s; water exchange rate kex [2, 4]: 4.1e+06 s⁻¹; ER ([2]; reference complexes): 3.85 kcal/mol; EV ([2]; reference complexes): 0.239 kcal/mol; ΔH‡ ([2]; reference complexes): 11.9 kcal/mol; Δ^2 ([2]; reference complexes): 0.16 10^20 s^−2; τRO^298 ([2]; reference complexes): 77 ps; τV^298 ([2]; reference complexes): 11 ps
O=C([O-])CNC(=O)CN1CCN(CC(=O)NCC(=O)[O-])CCN(CC(=O)NCC(=O)[O-])CCN(CC(=O)NCC(=O)[O-])CC1.[Dy+3] [Dy DOTA-(gly)4] | 1000 10^4 s^−1 | −50 10^6rad s^−1K T^−1 | 0 10^9rad s^−1K^2 T^−1 | -12 kcal/mol | 0.09 10^6 s^−1 | 12.7 kcal/mol | –
CNC[C@H](O)[C@@H](O)[C@H](O)[C@H](O)CO.CNC[C@H](O)[C@@H](O)[C@H](O)[C@H](O)CO.O=C([O-])CN(CCN(CC(=O)[O-])CC(=O)O)CCN(CC(=O)[O-])CC(=O)O.[Gd+3] [Magnevist, reference compound] | – | – | – | – | – | – | kinetic stability against transmetalation [3]: some transmetalation

From patent publication US11713305B2, “Zinc sensors for in vivo imaging of beta-cell function by MRI” (The Board of Regents of the University of Texas System, priority 2017, dated 2023)
